In patent publication US20260327240A1, “1,4-CINEOLE DERIVATIVE AND INTERMEDIATE THEREOF, HERBICIDE CONTAINING SAID DERIVATIVE AS ACTIVE INGREDIENT, METHOD FOR USING HERBICIDE, AND METHOD FOR PREPARING AGROCHEMICAL COMPOSITION” (HOKKO CHEMICAL INDUSTRY CO., LTD., priority 2023, published 2026):

Columns and labels:
Format in all cases: in vivo
Echinochloa crus-galli [1] = experiment: Test Example 8: herbicidal effect test by stem and leaf treatment in upland field; details: Echinochloa crus-galli, 7 days after sowing, 7.5 g per 10 ares, 14 days after application, read-out: weed inhibition rate
Protocol: Herbicidal Effect Test by Stem and Leaf Treatment in Upland Field
Pots with an area of 36 cm^2 were filled with upland soil (alluvial loam), twenty seeds each of weeds of Digitaria ciliaris, Echinochloa crus-galli, Chenopodium album, and Amaranthus viridis were uniformly mixed with the top 1 cm layer of soil and the surface was lightly pressed down. Seven days after sowing, an emulsifiable concentrate prepared according to Formulation Example 5 using the compound shown below was diluted with water, and the diluted solution was sprayed onto the soil surface at a rate of 100 liters per 10 ares. The amount of the active ingredient to be applied was equivalent to 7.5 g per 10 ares. Fourteen days after chemical application, the herbicidal effect was evaluated according to the same criteria as in Test Example 1.

Echinochloa crus-galli [2] = experiment: Test Example 4: herbicidal effect test by stem and leaf treatment in upland field; details: Echinochloa crus-galli, 7 days after sowing, 120 g per 10 ares, 14 days after application, read-out: weed inhibition rate
Summary of the method: (§1)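 Weeds sown in alluvial loam and sprayed 7 days after sowing with a water-diluted emulsifiable concentrate at 100 L per 10 ares, equivalent to 120 g active ingredient per 10 ares.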

Digitaria ciliaris = experiment: as above; details: Digitaria ciliaris, 7 days after sowing, 120 g per 10 ares, 14 days after application, read-out: weed inhibition rate
Summary of the method: as §1

[3] = system: Echinochloa crus-galli var. formosensis; experiment: Test Example 6: herbicidal effect test by application during growth period of paddy rice; details: Echinochloa crus-galli, 7 days after sowing, 7.5 g per 10 ares, 14 days after application, read-out: weed inhibition rate
Protocol: Herbicidal Effect Test by Application During Growth Period of Paddy Rice
Wagner pots with an area of […] were filled with paddy soil, followed by addition of water and incorporation of chemical fertilizer (N:P:K=16:16:16), after which puddling was performed. After that, seeds of Echinochloa crus-galli var. formosensis, broad-leaved weeds (Lindemia pyxidaria, and Monochoria vaginalis), and Scirpus juncoides were sown at a depth of 0 cm to 1 cm, 30 seeds each. Immediately after sowing, the pots were flooded and a water depth of approximately 3 cm was maintained. Subsequent management was conducted in a glass greenhouse. Seven days after sowing, an emulsifiable concentrate prepared according to Formulation Example 5 using the compound shown below was diluted with water, and a specified amount of the diluted solution was applied by dropper. The amount of the active ingredient to be applied was equivalent to 7.5 g per 10 ares. The test was conducted in duplicate for each chemical concentration group, and the herbicidal effect was evaluated 14 days after chemical application using the same criteria as in Test Example 1.

CCOC(C)O[C@H]1C[C@]2(C)O[C@@]1(C(C)C)C[C@H]2OCc1ccccc1F (stereo partly drawn) [1-213, (1R,2S,4S,5R)-2-(1-ethoxyethoxy)-5-((2-fluorobenzyl)oxy)-1-isopropyl-4-methyl-7-oxabicyclo[2.2.1]heptane]
≥ 80%: inhibition at 75 g/ha (Echinochloa crus-galli [1]) | inhibition at 1200 g/ha (Echinochloa crus-galli [2]) | inhibition at 1200 g/ha (Digitaria ciliaris) | inhibition at 75 g/ha [3]
